Patent US20260013504A1, “HERBICIDAL MIXTURE, HERBICIDAL COMPOSITION, METHOD, USE, AND KITS FOR CONTROLLING UNDESIRABLE VEGETATION” (ADAMA AGAN LTD., priority 2022, published 2026)

How the values were obtained:
Assay type in all cases: in vivo
Aegilops tauschii = assay: Pot experiment, soil treatment, control of Aegilops tauschii (fresh weight, Colby); details: mixtures: both AIs at these rates, after 35 days
Text: (§1) Referring to an article of Colby, S. R. i.e., Calculation of the synergistic and antagonistic response of herbicide combinations.
E0 is the theoretical fresh weight survival rate for the mixture of pyroxasulfone and the second herbicide selected from the group consisting of fluorochloridone, aclonifen, diflufenican and terbutryn;
X is the measured fresh weight survival rate for pyroxasulfone used alone at the same dosage as that in the mixture;
Y is the measured fresh weight survival rate for the second herbicide selected from the group consisting of fluorochloridone, aclonifen, diflufenican and terbutryn used alone at the same dosage as that in the mixture;
E is the measured fresh weight survival rate for the mixture of pyroxasulfone and the second herbicide selected from the group consisting of fluorochloridone, aclonifen, diflufenican and terbutryn.
(§2) E0-E value is calculated to evaluate the combined effect of pyroxasulfone and the second herbicide selected from the group consisting of fluorochloridone, aclonifen, diflufenican and terbutryn on the selected weeds.
(§3) In this Example, the herbicidal activity of treatments by a mixture of pyroxasulfone and the second herbicide selected from the group consisting of fluorochloridone, aclonifen, diflufenican and terbutryn for controlling Aegilops tauschii was investigated by a pot experiment. This Example was carried out in accordance with “NY/T 1155.4-2006 Guidelines for Indoor Bioassay Tests of Pesticides, Herbicides Part 4: Activity Determination Tests, Stem and Leaf Spray Method”. • Source of the agrochemicals tested were: • Pyroxasulfone: pyroxasulfone (850g/Kg, WG) from Adama Agan LTD. • Fluorochloridone: fluorochloridone (250 g/L, EC) from Adama Agan LTD. • Aclonifen: aclonifen (600 g/L, SC) from Adama Agan LTD. • Diflufenican: diflufenican (50g/Kg, WP) from Bayer. • Terbutryn: terbutryn (50g/Kg, SC) from Zhejiang Zhongshan Chemical Industry Group Co., Ltd. • Cultivation of test materials: The test soil was formed by mixing the 20 cm layer loam on the ground surface and the culture medium in a ratio of 3:1 as cultivation soil. Weeds were cultivated in an artificial climate chamber. The daytime and nighttime temperatures were set at 22° C. and 19° C., respectively, and the illumination was set at daytime: dark time 12h: 12h.
(§4) A certain amount of Aegilops tauschii seeds were sown in a plastic pot with a diameter of 9 cm, covering with 1-2 mm soil, and putting them in an enamel dish filled with water. The bottom infiltration method was used to water them, the agrochemicals tested in this Example were applied on the second day after sowing Aegilops tauschii seeds.
(§5) Spraying treatment: ASS-4 automatic control spraying system with a fan-shaped nozzle was used indoors to spray the agrochemicals, the running speed was adjusted based on nozzle pressure, flow rate, etc. to spray 50 mL of liquid of agrochemicals on the actual spray area of 1.1 m2 (equivalent to 30 liters per mu), arranging the plastic pots to be processed on the spraying table evenly, and spraying evenly. The spraying pressure was 0.35 MPa, and the flow rate of the fan-shaped nozzle was 800 mL/min, spraying in order from low dosage to high dosage. Each treatment was repeated 3 times. After spraying, the plastic pots were dried for one day, placed in an artificial climate chamber, and watered regularly to keep moist.
(§6) Weed investigation method and time: after applying the agrochemicals, the symptoms of weed damage (such as growth inhibition, chlorosis, deformity, etc.) were recorded in detail. After 35 days, the fresh weight of aerial part of the weeds in each treatment was weighed, and the measured fresh weight inhibition rate and the measured fresh weight survival rate for each treatment were calculated according to the following equations: […]

Lolium multiflorum Lamk = assay: Pot experiment, soil treatment, control of Lolium multiflorum Lamk (fresh weight, Colby); details: mixtures: both AIs at these rates, after 35 days
Procedure: as §1, §2, §3, §4, §5, §6
Example 2 was conducted in substantially the same way as Example 1, except that Lolium multiflorum Lamk was used instead of Aegilops tauschii.

Lithospermum arvense = assay: Pot experiment, soil treatment, control of Lithospermum arvense (fresh weight, Colby)
Procedure: as §1, §2, §3, §4, §5, §6
Example 5 was conducted substantially the same way as Example 1, except that Lithospermum arvense was used instead of Aegilops tauschii.

Galium aparine = assay: Pot experiment, soil treatment, control of Galium aparine (fresh weight, Colby)
Procedure: as §1, §2, §3, §4, §5, §6
Example 4 was conducted substantially the same way as Example 1, except that Galium aparine was used instead of Aegilops tauschii.

Bromus japonicus = assay: Pot experiment, soil treatment, control of Bromus japonicus (fresh weight, Colby); details: mixtures: both AIs at these rates, after 35 days
Procedure: as §1, §2, §3, §4, §5, §6
Example 3 was conducted in substantially the same way as Example 1, except that Bromus japonicus was used instead of Aegilops tauschii.

Solanum nigrum = assay: Pot experiment (glass greenhouse), soil treatment, control of Solanum nigrum (fresh weight, Colby)
Procedure: as §1, §2, §3, §4, §5, §6
Example 6 was substantially conducted in the same as Example 1, except that (1) Solanum nigrum was used instead of Aegilops tauschii, (2) in “Cultivation of test materials” part, Solanum nigrum was cultivated in a glass greenhouse instead of an artificial climate chamber at a temperature of 25 to 33° C. with a natural illumination, and (3) in “Spraying treatment” part, after spraying and drying, the plastic pots were placed in a glass greenhouse instead of an artificial climate chamber.

[1] = g ai/ha: pyroxasulfone 11.25, fluorochloridone 31.25, aclonifen 150, diflufenican 14.0625, terbutryn 140.625
[2] = g ai/ha: pyroxasulfone 22.5, fluorochloridone 62.5, aclonifen 300, diflufenican 28.125, terbutryn 281.25
[3] = g ai/ha: pyroxasulfone 45, fluorochloridone 125, aclonifen 600, diflufenican 56.25, terbutryn 562.5
[4] = g ai/ha: pyroxasulfone 90, fluorochloridone 250, aclonifen 1200, diflufenican 112.5, terbutryn 1125
[5] = g ai/ha: pyroxasulfone 180, fluorochloridone 500, aclonifen 2400, diflufenican 225, terbutryn 2250
[6] = g ai/ha: pyroxasulfone 360, fluorochloridone 1000, aclonifen 4800, diflufenican 450, terbutryn 4500

Compound: O=C(Nc1ccc(F)cc1F)c1cccnc1Oc1cccc(C(F)(F)F)c1 [diflufenican, N-(2,4-difluorophenyl)-2-(3-(trifluoromethyl)phenoxy)-3-pyridinecarboxamide]
- Measured fresh weight inhibition rate (%) (Aegilops tauschii; [1]): 3.7%
- Measured fresh weight survival rate (%) - E (Aegilops tauschii; [1]): 96.3%
- Measured fresh weight inhibition rate (%) (Aegilops tauschii; [2]): 6.7%
- Measured fresh weight survival rate (%) - E (Aegilops tauschii; [2]): 93.3%
- Measured fresh weight inhibition rate (%) (Aegilops tauschii; [3]): 4.3%
- Measured fresh weight survival rate (%) - E (Aegilops tauschii; [3]): 95.7%
- Measured fresh weight inhibition rate (%) (Aegilops tauschii; [4]): 6.7%
- Measured fresh weight survival rate (%) - E (Aegilops tauschii; [4]): 93.3%
- Measured fresh weight inhibition rate (%) (Aegilops tauschii; [5]): 10.4%
- Measured fresh weight survival rate (%) - E (Aegilops tauschii; [5]): 89.6%
- Measured fresh weight inhibition rate (%) (Aegilops tauschii; [6]): 37.2%
- Measured fresh weight survival rate (%) - E (Aegilops tauschii; [6]): 62.8%
- Measured fresh weight inhibition rate (%) (Lolium multiflorum Lamk; [1]): 87.0%
- Measured fresh weight survival rate (%) - E (Lolium multiflorum Lamk; [1]): 13.0%
- Measured fresh weight inhibition rate (%) (Lolium multiflorum Lamk; [2]): 88.0%
- Measured fresh weight survival rate (%) - E (Lolium multiflorum Lamk; [2]): 12.0%
- Measured fresh weight inhibition rate (%) (Lolium multiflorum Lamk; [3]): 93.2%
- Measured fresh weight survival rate (%) - E (Lolium multiflorum Lamk; [3]): 6.8%
- Measured fresh weight inhibition rate (%) (Lolium multiflorum Lamk; [4]): 99.5%
- Measured fresh weight survival rate (%) - E (Lolium multiflorum Lamk; [4]): 0.5%
- Measured fresh weight inhibition rate (%) (Lolium multiflorum Lamk; [5]): 100.0%
- Measured fresh weight survival rate (%) - E (Lolium multiflorum Lamk; [5]): 0.0%
- Measured fresh weight inhibition rate (%) (Lolium multiflorum Lamk; [6]): 100.0%
- Measured fresh weight survival rate (%) - E (Lolium multiflorum Lamk; [6]): 0.0%
- Measured fresh weight survival rate (%) - E (Lithospermum arvense; 14.0625 g ai/ha): 33.3%
- Measured fresh weight survival rate (%) - E (Lithospermum arvense; 28.125 g ai/ha): 17.4%
- Measured fresh weight survival rate (%) - E (Lithospermum arvense; 56.25 g ai/ha): 15.9%
- Measured fresh weight survival rate (%) - E (Lithospermum arvense; 112.5 g ai/ha): 1.4%
- Measured fresh weight survival rate (%) - E (Lithospermum arvense; 225 g ai/ha): 0.0%
- inhibition at 14.0625 g/ha (Lithospermum arvense; Buglossoides arvensis, soil, 14.0625 g ai/ha, read-out: Measured fresh weight inhibition rate (%)): 66.7%
- inhibition at 28.125 g/ha (Lithospermum arvense; Buglossoides arvensis, soil, 28.125 g ai/ha, read-out: Measured fresh weight inhibition rate (%)): 82.6%
- inhibition at 56.25 g/ha (Lithospermum arvense; Buglossoides arvensis, soil, 56.25 g ai/ha, read-out: Measured fresh weight inhibition rate (%)): 84.1%
- inhibition at 112.5 g/ha (Lithospermum arvense; Buglossoides arvensis, soil, 112.5 g ai/ha, read-out: Measured fresh weight inhibition rate (%)): 98.6%
- inhibition at 225 g/ha (Lithospermum arvense; Buglossoides arvensis, soil, 225 g ai/ha, read-out: Measured fresh weight inhibition rate (%)): 100%
- Measured fresh weight survival rate (%) - E (Galium aparine; 14.0625 g ai/ha): 38.4%
- Measured fresh weight survival rate (%) - E (Galium aparine; 28.125 g ai/ha): 27.4%
- Measured fresh weight survival rate (%) - E (Galium aparine; 56.25 g ai/ha): 26.0%
- Measured fresh weight survival rate (%) - E (Galium aparine; 112.5 g ai/ha): 15.1%
- Measured fresh weight survival rate (%) - E (Galium aparine; 225 g ai/ha): 1.4%
- inhibition at 14.0625 g/ha (Galium aparine; Galium aparine, soil, 14.0625 g ai/ha, read-out: Measured fresh weight inhibition rate (%)): 61.6%
- inhibition at 28.125 g/ha (Galium aparine; Galium aparine, soil, 28.125 g ai/ha, read-out: Measured fresh weight inhibition rate (%)): 72.6%
- inhibition at 56.25 g/ha (Galium aparine; Galium aparine, soil, 56.25 g ai/ha, read-out: Measured fresh weight inhibition rate (%)): 74%
- inhibition at 112.5 g/ha (Galium aparine; Galium aparine, soil, 112.5 g ai/ha, read-out: Measured fresh weight inhibition rate (%)): 84.9%
- inhibition at 225 g/ha (Galium aparine; Galium aparine, soil, 225 g ai/ha, read-out: Measured fresh weight inhibition rate (%)): 98.6%
- Measured fresh weight inhibition rate (%) (Bromus japonicus; [1]): 59.8%
- Measured fresh weight survival rate (%) - E (Bromus japonicus; [1]): 40.2%
- Measured fresh weight inhibition rate (%) (Bromus japonicus; [2]): 73.2%
- Measured fresh weight survival rate (%) - E (Bromus japonicus; [2]): 26.8%
- Measured fresh weight inhibition rate (%) (Bromus japonicus; [3]): 80.4%
- Measured fresh weight survival rate (%) - E (Bromus japonicus; [3]): 19.6%
- Measured fresh weight inhibition rate (%) (Bromus japonicus; [4]): 95.9%
- Measured fresh weight survival rate (%) - E (Bromus japonicus; [4]): 4.1%
- Measured fresh weight inhibition rate (%) (Bromus japonicus; [5]): 100.0%
- Measured fresh weight survival rate (%) - E (Bromus japonicus; [5]): 0.0%
- Measured fresh weight survival rate (%) - E (Solanum nigrum; 14.0625 g ai/ha): 94.1%
- Measured fresh weight survival rate (%) - E (Solanum nigrum; 28.125 g ai/ha): 90.2%
- Measured fresh weight survival rate (%) - E (Solanum nigrum; 56.25 g ai/ha): 79.2%
- Measured fresh weight survival rate (%) - E (Solanum nigrum; 112.5 g ai/ha): 71.8%
- Measured fresh weight survival rate (%) - E (Solanum nigrum; 225 g ai/ha): 63.5%
- inhibition at 14.0625 g/ha (Solanum nigrum; Solanum nigrum, soil, 14.0625 g ai/ha, read-out: Measured fresh weight inhibition rate (%)): 5.9%
- inhibition at 28.125 g/ha (Solanum nigrum; Solanum nigrum, soil, 28.125 g ai/ha, read-out: Measured fresh weight inhibition rate (%)): 9.8%
- inhibition at 56.25 g/ha (Solanum nigrum; Solanum nigrum, soil, 56.25 g ai/ha, read-out: Measured fresh weight inhibition rate (%)): 20.8%
- inhibition at 112.5 g/ha (Solanum nigrum; Solanum nigrum, soil, 112.5 g ai/ha, read-out: Measured fresh weight inhibition rate (%)): 28.2%
- inhibition at 225 g/ha (Solanum nigrum; Solanum nigrum, soil, 225 g ai/ha, read-out: Measured fresh weight inhibition rate (%)): 36.5%
